ChEMBL document CHEMBL4184127, “Isolation of a peptide containing d-amino acid residues that inhibits the α-helix-mediated p53-MDM2 interaction from a one-bead one-compound library” (Bioorg Med Chem Lett, 2018)

Experiments:
[1] = Metabolic stability in human serum assessed as compound remaining at 3 mM after 24 hrs by HPLC analysis; assay type: ADME, cell-free; conditions: read-out: Stability
[2] = Metabolic stability in human serum assessed as compound remaining at 3 mM after 72 hrs by HPLC analysis; assay type: ADME, cell-free; conditions: read-out: Stability

| remaining at 24 h, 3000 µM [1] [%] | remaining at 72 h, 3000 µM [2] [%] | Structure (SMILES) |
| --- | --- | --- |
| 24 |  | CC(C)C[C@H](NC(=O)[C@H](CC(=O)O)NC(=O)[C@H](CCC(=O)O)NC(=O)[C@@H](NC(=O)[C@H](CC(C)C)NC(=O)[C@H](CCC(=O)O)NC(=O)C(C)(C)NC(=O)[C@H](Cc1c[nH]c2ccccc12)NC(=O)[C@@H](NC(=O)[C@@H](N)CC(=O)O)[C@@H](C)O)C(C)C)C(=O)N[C@@H](CC(N)=O)C(=O)NCC(=O)NCC(=O)NCC(=O)N[C@@H](CO)C(=O)N[C@@H](Cc1ccc(Br)cc1)C(=O)N[C@@H](CCCNC(=N)N)C(N)=O |
| 62 | 36 | CC(C)C[C@@H](NC(=O)[C@@H](CC(=O)O)NC(=O)[C@@H](CCC(=O)O)NC(=O)[C@H](NC(=O)[C@@H](CC(C)C)NC(=O)[C@@H](CCC(=O)O)NC(=O)C(C)(C)NC(=O)[C@@H](Cc1c[nH]c2ccccc12)NC(=O)[C@H](NC(=O)[C@H](N)CC(=O)O)[C@@H](C)O)C(C)C)C(=O)N[C@H](CC(N)=O)C(=O)NCC(=O)NCC(=O)NCC(=O)N[C@@H](CO)C(=O)N[C@@H](Cc1ccc(Br)cc1)C(=O)N[C@@H](CCCNC(=N)N)C(N)=O |
